The source made the active and inactive calls. The rule behind the calls is not given here.
Test system: CCRIS mutagenicity, Ames/micronucleus/aberration tests
Assay: CCRIS mutagenicity studies
[1] = Test System: AMES SALMONELLA TYPHIMURIUM, Strain/Indicator: TA98, Metabolic Activation: NONE, Method: PREINCUBATION
[2] = Test System: AMES SALMONELLA TYPHIMURIUM, Strain/Indicator: TA100, Metabolic Activation: NONE, Method: PREINCUBATION
[3] = Test System: AMES SALMONELLA TYPHIMURIUM, Strain/Indicator: TA1535, Metabolic Activation: NONE, Method: PREINCUBATION
[4] = Test System: AMES SALMONELLA TYPHIMURIUM, Strain/Indicator: TA1537, Metabolic Activation: NONE, Method: PREINCUBATION

Measured: mutagenic call

OC1c2ccc3nc4c(ccc5ccccc54)cc3c2C2OC2C1O (stereo not drawn)
inactive: Test System: AMES SALMONELLA TYPHIMURIUM, Strain/Indicator: TA98, Metabolic Activation: RAT, LIVER, AROCLOR 1254, NADPH GENERATING SYSTEM, Method: STANDARD PLATE inactive; negative | Test System: AMES SALMONELLA TYPHIMURIUM, Strain/Indicator: TA100, Metabolic Activation: RAT, LIVER, AROCLOR 1254, NADPH GENERATING SYSTEM, Method: STANDARD PLATE inactive; negative | Test System: CHINESE HAMSTER V-79, Strain/Indicator: V-79/8-AZAGUANINE, Method: STANDARD PLATE inactive; negative

CC(=O)OC(C)(C)C
inactive: [1] inactive; negative | Test System: AMES SALMONELLA TYPHIMURIUM, Strain/Indicator: TA98, Metabolic Activation: RAT, LIVER, S-9, AROCLOR 1254, Method: PREINCUBATION inactive; negative | [2] inactive; negative | Test System: AMES SALMONELLA TYPHIMURIUM, Strain/Indicator: TA100, Metabolic Activation: RAT, LIVER, S-9, AROCLOR 1254, Method: PREINCUBATION inactive; negative | Test System: AMES SALMONELLA TYPHIMURIUM, Strain/Indicator: TA102, Metabolic Activation: NONE, Method: PREINCUBATION inactive; negative | Test System: AMES SALMONELLA TYPHIMURIUM, Strain/Indicator: TA102, Metabolic Activation: RAT, LIVER, S-9, AROCLOR 1254, Method: PREINCUBATION inactive; negative | [3] inactive; negative | Test System: AMES SALMONELLA TYPHIMURIUM, Strain/Indicator: TA1535, Metabolic Activation: RAT, LIVER, S-9, AROCLOR 1254, Method: PREINCUBATION inactive; negative | [4] inactive; negative | Test System: AMES SALMONELLA TYPHIMURIUM, Strain/Indicator: TA1537, Metabolic Activation: RAT, LIVER, S-9, AROCLOR 1254, Method: PREINCUBATION inactive; negative | Test System: E. COLI, Strain/Indicator: WP2UVRA/PKM, Metabolic Activation: NONE, Method: PREINCUBATION inactive; negative | Test System: E. COLI, Strain/Indicator: WP2UVRA/PKM, Metabolic Activation: RAT, LIVER, S-9, AROCLOR 1254, Method: PREINCUBATION inactive; negative

CCCCOC(=O)c1ccccc1N
inactive: Test System: AMES SALMONELLA TYPHIMURIUM, Strain/Indicator: TA98, Metabolic Activation: HAMSTER, LIVER, S-9, AROCLOR 1254 (10%), Method: PREINCUBATION inactive; negative | [1] inactive; negative | Test System: AMES SALMONELLA TYPHIMURIUM, Strain/Indicator: TA98, Metabolic Activation: RAT, LIVER, S-9, AROCLOR 1254 (10%), Method: PREINCUBATION inactive; negative | Test System: AMES SALMONELLA TYPHIMURIUM, Strain/Indicator: TA100, Metabolic Activation: HAMSTER, LIVER, S-9, AROCLOR 1254 (10%), Method: PREINCUBATION inactive; negative | [2] inactive; negative | Test System: AMES SALMONELLA TYPHIMURIUM, Strain/Indicator: TA100, Metabolic Activation: RAT, LIVER, S-9, AROCLOR 1254 (10%), Method: PREINCUBATION inactive; negative | Test System: AMES SALMONELLA TYPHIMURIUM, Strain/Indicator: TA1535, Metabolic Activation: HAMSTER, LIVER, S-9, AROCLOR 1254 (10%), Method: PREINCUBATION inactive; negative | [3] inactive; negative | Test System: AMES SALMONELLA TYPHIMURIUM, Strain/Indicator: TA1535, Metabolic Activation: RAT, LIVER, S-9, AROCLOR 1254 (10%), Method: PREINCUBATION inactive; negative | Test System: AMES SALMONELLA TYPHIMURIUM, Strain/Indicator: TA1537, Metabolic Activation: HAMSTER, LIVER, S-9, AROCLOR 1254 (10%), Method: PREINCUBATION inactive; negative | [4] inactive; negative | Test System: AMES SALMONELLA TYPHIMURIUM, Strain/Indicator: TA1537, Metabolic Activation: RAT, LIVER, S-9, AROCLOR 1254 (10%), Method: PREINCUBATION inactive; negative

COc1cccc2c1cc1c3c(cc4c(c32)OCO4)C(=O)N1
active: Test System: AMES SALMONELLA TYPHIMURIUM, Strain/Indicator: TA100, Metabolic Activation: RAT, LIVER, S-9, AROCLOR 1254, Method: STANDARD PLATE active; positive | Test System: AMES SALMONELLA TYPHIMURIUM, Strain/Indicator: TA1537, Metabolic Activation: RAT, LIVER, S-9, AROCLOR 1254, Method: STANDARD PLATE active; positive
inactive: Test System: AMES SALMONELLA TYPHIMURIUM, Strain/Indicator: D3052, Metabolic Activation: NONE, Method: STANDARD PLATE inactive; negative | Test System: AMES SALMONELLA TYPHIMURIUM, Strain/Indicator: D3052, Metabolic Activation: RAT, LIVER, S-9, PHENOBARBITAL, Method: STANDARD PLATE inactive; negative | Test System: AMES SALMONELLA TYPHIMURIUM, Strain/Indicator: G46, Metabolic Activation: NONE, Method: STANDARD PLATE inactive; negative | Test System: AMES SALMONELLA TYPHIMURIUM, Strain/Indicator: G46, Metabolic Activation: RAT, LIVER, S-9, PHENOBARBITAL, Method: STANDARD PLATE inactive; negative | Test System: AMES SALMONELLA TYPHIMURIUM, Strain/Indicator: TA98, Metabolic Activation: NONE, Method: STANDARD PLATE inactive; negative | Test System: AMES SALMONELLA TYPHIMURIUM, Strain/Indicator: TA98, Metabolic Activation: RAT, LIVER, S-9, PHENOBARBITAL, Method: STANDARD PLATE inactive; negative | Test System: AMES SALMONELLA TYPHIMURIUM, Strain/Indicator: TA100, Metabolic Activation: NONE, Method: STANDARD PLATE inactive; negative | Test System: AMES SALMONELLA TYPHIMURIUM, Strain/Indicator: TA100, Metabolic Activation: RAT, LIVER, S-9, PHENOBARBITAL, Method: STANDARD PLATE inactive; negative | Test System: AMES SALMONELLA TYPHIMURIUM, Strain/Indicator: TA1535, Metabolic Activation: NONE, Method: STANDARD PLATE inactive; negative | Test System: AMES SALMONELLA TYPHIMURIUM, Strain/Indicator: TA1535, Metabolic Activation: RAT, LIVER, S-9, PHENOBARBITAL, Method: STANDARD PLATE inactive; negative | Test System: AMES SALMONELLA TYPHIMURIUM, Strain/Indicator: TA1537, Metabolic Activation: NONE, Method: STANDARD PLATE inactive; negative | Test System: AMES SALMONELLA TYPHIMURIUM, Strain/Indicator: TA1978, Metabolic Activation: NONE, Method: STANDARD PLATE inactive; negative | Test System: AMES SALMONELLA TYPHIMURIUM, Strain/Indicator: TA1978, Metabolic Activation: RAT, LIVER, S-9, PHENOBARBITAL, Method: STANDARD PLATE inactive; negative | Test System: AMES SALMONELLA TYPHIMURIUM, Strain/Indicator: TM677/8-AZAGUANINE, Metabolic Activation: NONE, Method: SUSPENSION/PLATE inactive; negative
